Source: publication PMC5814754, “Quantitative, Wide-Spectrum Kinase Profiling in Live Cells for Assessing the Effect of Cellular ATP on Target Engagement” (Cell Chemical Biology, 2018)
Read-outs that look alike come from different tables or passages of the source. Each block holds one compound with its values, some of them ahead of it.

Tests used:
[1] = system: ABL; conditions: read-out: Crizotinib IC50 Biochemical; ref Cui et al., 2011; cited from earlier work
[2] = system: TRKA; conditions: read-out: Live Cell IC50 Phospho Elisa; ref Cui et al., 2011; cited from earlier work
[3] = system: AXL; conditions: read-out: Live Cell IC50 Phospho Elisa; ref Cui et al., 2011; cited from earlier work
[4] = system: LCK; conditions: read-out: cellular potency (phospho-ELISA), ref Cui et al., 2011; cited from earlier work
[5] = molecular target: 178 full-length kinases (Homo sapiens, UniProt P42681); experiment: NanoBRET single-dose fractional occupancy profiling of kinase/Nluc library in live HEK293 cells (Table S1); format: binding; parameters: Occupancy, % Replicate 1 / Occupancy, % Replicate 2: unit of the concentration uncertain; conditions: TXK (NP_003319), Nluc orientation C, probe 6 at 0.1 (unit uncertain)
[6] = molecular target: 178 full-length kinases (Homo sapiens, UniProt Q7KZI7); experiment: as above; format: binding; parameters: Occupancy, % Replicate 1 / Occupancy, % Replicate 2: unit of the concentration uncertain; conditions: MARK2, Nluc N, probe 5 at 1 (unit uncertain)
[7] = molecular target: 178 full-length kinases (Homo sapiens, UniProt O75460); experiment: as above; format: binding; parameters: Occupancy, % Replicate 1 / Occupancy, % Replicate 2: unit of the concentration uncertain; conditions: ERN1, Nluc C, probe 5 at 1 (unit uncertain)
[8] = molecular target: 178 full-length kinases (Homo sapiens, UniProt P50750); experiment: as above; format: binding; parameters: Occupancy, % Replicate 1 / Occupancy, % Replicate 2: unit of the concentration uncertain; conditions: CDK9, Nluc N, probe 1 at 0.5 (unit uncertain)
[9] = molecular target: 178 full-length kinases (Homo sapiens, UniProt Q13237); experiment: as above; format: binding; parameters: Occupancy, % Replicate 1 / Occupancy, % Replicate 2: unit of the concentration uncertain; conditions: PRKG2, Nluc C, probe 5 at 1 (unit uncertain)
[10] = molecular target: 178 full-length kinases (Homo sapiens, UniProt Q13705); experiment: as above; format: binding; parameters: Occupancy, % Replicate 1 / Occupancy, % Replicate 2: unit of the concentration uncertain; conditions: ACVR2B, Nluc C, probe 2 at 1 (unit uncertain)
[11] = molecular target: 178 full-length kinases (Homo sapiens, UniProt Q08881); experiment: as above; format: binding; parameters: Occupancy, % Replicate 1 / Occupancy, % Replicate 2: unit of the concentration uncertain; conditions: ITK, Nluc N, probe 5 at 0.01 (unit uncertain)
[12] = molecular target: 178 full-length kinases (Homo sapiens, UniProt Q8IWQ3); experiment: as above; format: binding; parameters: Occupancy, % Replicate 1 / Occupancy, % Replicate 2: unit of the concentration uncertain; conditions: BRSK2, Nluc N, probe 5 at 0.5 (unit uncertain)
[13] = molecular target: 178 full-length kinases (Homo sapiens, UniProt Q8WU08); experiment: as above; format: binding; parameters: Occupancy, % Replicate 1 / Occupancy, % Replicate 2: unit of the concentration uncertain; conditions: STK32A (NP_001106195), Nluc orientation N, probe 5 at 1 (unit uncertain); replicate 2
[14] = molecular target: 178 full-length kinases (Homo sapiens, UniProt P42685); experiment: as above; format: binding; parameters: Occupancy, % Replicate 1 / Occupancy, % Replicate 2: unit of the concentration uncertain; conditions: FRK, Nluc C, probe 6 at 0.5 (unit uncertain)
[15] = system: TRKB; conditions: read-out: Crizotinib IC50 Biochemical; ref Cui et al., 2011; cited from earlier work
[16] = system: TIE2; conditions: read-out: Crizotinib IC50 Biochemical; ref Cui et al., 2011; cited from earlier work
[17] = molecular target: full-length kinase/Nluc fusion proteins (Homo sapiens, UniProt O95835); experiment: Apparent affinity (EC50) of energy transfer probes by titration onto live HEK293 cells expressing kinase/Nluc fusions (Table S1); format: binding; conditions: LATS1, Nluc C; read-out: Probe EC50
[18] = molecular target: full-length kinase/Nluc fusion proteins (Homo sapiens, UniProt O75460); experiment: as above; format: binding; conditions: ERN1, Nluc C; read-out: Probe EC50
[19] = molecular target: full-length kinase/Nluc fusion proteins (Homo sapiens, UniProt Q96PY6); experiment: as above; format: binding; conditions: NEK1, Nluc N; read-out: Probe EC50
[20] = molecular target: full-length kinase/Nluc fusion proteins (Homo sapiens, UniProt P07949); experiment: as above; format: binding; conditions: RET, Nluc C; read-out: Probe EC50
[21] = molecular target: full-length kinase/Nluc fusion proteins (Homo sapiens, UniProt P51812); experiment: as above; format: binding; conditions: RPS6KA3 (NP_004577), Nluc orientation N; read-out: Probe EC50
[22] = molecular target: full-length kinase/Nluc fusion proteins (Homo sapiens, UniProt P51956); experiment: as above; format: binding; conditions: NEK3, Nluc N; read-out: Probe EC50
[23] = molecular target: full-length kinase/Nluc fusion proteins (Homo sapiens, UniProt Q8IYT8); experiment: as above; format: binding; conditions: ULK2 (NP_001136082), Nluc orientation N; read-out: Probe EC50
[24] = molecular target: LCK (Homo sapiens, UniProt P06239); experiment: NanoBRET target engagement, LCK-NanoLuc, HEK293 cells (live, ATP depleted, permeabilized); format: binding; conditions: LCK-NanoLuc, read-out: Tracer Affinity EC50
[25] = molecular target: full-length kinase/Nluc fusion proteins (Homo sapiens, UniProt P08631); experiment: Apparent affinity (EC50) of energy transfer probes by titration onto live HEK293 cells expressing kinase/Nluc fusions (Table S1); format: binding; conditions: HCK, Nluc C; read-out: Probe EC50
[26] = molecular target: full-length kinase/Nluc fusion proteins (Homo sapiens, UniProt Q13882); experiment: as above; format: binding; conditions: PTK6, Nluc C; read-out: Probe EC50

Chain of LCK (P06239 whole entry, the tested form may be a part): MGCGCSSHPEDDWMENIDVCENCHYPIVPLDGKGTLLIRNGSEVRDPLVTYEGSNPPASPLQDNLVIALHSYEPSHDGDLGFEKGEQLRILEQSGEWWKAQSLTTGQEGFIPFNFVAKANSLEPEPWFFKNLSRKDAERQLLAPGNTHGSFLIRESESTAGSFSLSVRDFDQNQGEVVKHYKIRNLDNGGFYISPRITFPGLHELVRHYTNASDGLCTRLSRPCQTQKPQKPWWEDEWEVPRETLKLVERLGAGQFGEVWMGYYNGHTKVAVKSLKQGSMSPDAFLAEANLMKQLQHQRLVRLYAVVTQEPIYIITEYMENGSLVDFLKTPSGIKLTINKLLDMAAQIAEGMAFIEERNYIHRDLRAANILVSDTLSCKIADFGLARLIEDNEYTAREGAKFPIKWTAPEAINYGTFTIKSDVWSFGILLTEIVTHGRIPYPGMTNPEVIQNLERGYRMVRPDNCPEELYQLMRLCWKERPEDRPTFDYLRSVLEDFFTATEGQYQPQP
Chain of 178 full-length kinases (Homo sapiens, UniProt P50750) (P50750 whole entry): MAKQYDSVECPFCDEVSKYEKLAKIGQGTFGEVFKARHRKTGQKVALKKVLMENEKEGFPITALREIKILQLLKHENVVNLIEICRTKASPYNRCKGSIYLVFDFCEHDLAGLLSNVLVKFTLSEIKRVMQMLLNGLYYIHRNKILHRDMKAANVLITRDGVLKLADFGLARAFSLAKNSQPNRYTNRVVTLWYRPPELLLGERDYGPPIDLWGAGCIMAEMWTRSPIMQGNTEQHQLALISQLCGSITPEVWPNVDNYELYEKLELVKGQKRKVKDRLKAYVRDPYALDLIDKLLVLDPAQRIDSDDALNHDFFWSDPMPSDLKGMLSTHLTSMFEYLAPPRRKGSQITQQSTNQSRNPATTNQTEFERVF
Chain of 178 full-length kinases (Homo sapiens, UniProt O75460) (O75460 19-977): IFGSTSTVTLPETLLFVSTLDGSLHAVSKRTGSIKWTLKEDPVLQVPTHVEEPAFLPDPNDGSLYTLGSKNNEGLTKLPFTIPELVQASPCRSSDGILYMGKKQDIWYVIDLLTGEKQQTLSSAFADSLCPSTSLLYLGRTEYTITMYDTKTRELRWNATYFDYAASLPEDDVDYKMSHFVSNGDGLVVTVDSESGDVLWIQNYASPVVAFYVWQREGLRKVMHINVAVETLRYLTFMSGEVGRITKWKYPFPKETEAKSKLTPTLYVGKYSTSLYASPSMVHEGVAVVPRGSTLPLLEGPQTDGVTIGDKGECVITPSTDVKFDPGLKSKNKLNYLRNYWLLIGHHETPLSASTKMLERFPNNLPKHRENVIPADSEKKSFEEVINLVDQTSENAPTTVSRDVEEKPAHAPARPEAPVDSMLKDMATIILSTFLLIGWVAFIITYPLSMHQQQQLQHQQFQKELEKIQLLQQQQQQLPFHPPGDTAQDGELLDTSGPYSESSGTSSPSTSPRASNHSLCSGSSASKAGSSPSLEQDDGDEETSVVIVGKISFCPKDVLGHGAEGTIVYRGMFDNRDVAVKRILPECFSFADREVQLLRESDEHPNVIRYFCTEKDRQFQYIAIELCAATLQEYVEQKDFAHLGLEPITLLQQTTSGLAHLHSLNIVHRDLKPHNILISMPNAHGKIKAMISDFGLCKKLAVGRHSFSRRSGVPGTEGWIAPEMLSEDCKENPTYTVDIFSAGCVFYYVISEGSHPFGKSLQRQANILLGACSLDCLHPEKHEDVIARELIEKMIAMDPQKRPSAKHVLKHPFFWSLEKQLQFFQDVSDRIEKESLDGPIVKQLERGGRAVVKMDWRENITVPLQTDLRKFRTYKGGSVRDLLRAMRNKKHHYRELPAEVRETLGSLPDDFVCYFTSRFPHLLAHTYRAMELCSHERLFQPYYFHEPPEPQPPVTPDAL
Chain of 178 full-length kinases (Homo sapiens, UniProt P42681) (P42681 whole entry): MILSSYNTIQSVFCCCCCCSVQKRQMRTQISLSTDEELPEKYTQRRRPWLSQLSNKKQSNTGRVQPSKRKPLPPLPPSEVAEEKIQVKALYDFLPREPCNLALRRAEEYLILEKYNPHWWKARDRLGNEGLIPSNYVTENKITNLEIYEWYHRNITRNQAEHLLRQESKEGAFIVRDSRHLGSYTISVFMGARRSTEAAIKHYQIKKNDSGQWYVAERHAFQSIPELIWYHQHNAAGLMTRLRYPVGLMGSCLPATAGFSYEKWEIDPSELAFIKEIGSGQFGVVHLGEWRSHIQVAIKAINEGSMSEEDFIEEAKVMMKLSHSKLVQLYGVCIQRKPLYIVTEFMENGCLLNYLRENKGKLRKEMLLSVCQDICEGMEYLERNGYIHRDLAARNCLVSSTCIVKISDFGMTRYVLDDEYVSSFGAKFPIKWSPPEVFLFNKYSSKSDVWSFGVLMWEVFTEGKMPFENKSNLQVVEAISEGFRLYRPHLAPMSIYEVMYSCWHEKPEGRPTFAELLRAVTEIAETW
Chain of full-length kinase/Nluc fusion proteins (Homo sapiens, UniProt Q8IYT8) (Q8IYT8 whole entry, the tested form may be a part): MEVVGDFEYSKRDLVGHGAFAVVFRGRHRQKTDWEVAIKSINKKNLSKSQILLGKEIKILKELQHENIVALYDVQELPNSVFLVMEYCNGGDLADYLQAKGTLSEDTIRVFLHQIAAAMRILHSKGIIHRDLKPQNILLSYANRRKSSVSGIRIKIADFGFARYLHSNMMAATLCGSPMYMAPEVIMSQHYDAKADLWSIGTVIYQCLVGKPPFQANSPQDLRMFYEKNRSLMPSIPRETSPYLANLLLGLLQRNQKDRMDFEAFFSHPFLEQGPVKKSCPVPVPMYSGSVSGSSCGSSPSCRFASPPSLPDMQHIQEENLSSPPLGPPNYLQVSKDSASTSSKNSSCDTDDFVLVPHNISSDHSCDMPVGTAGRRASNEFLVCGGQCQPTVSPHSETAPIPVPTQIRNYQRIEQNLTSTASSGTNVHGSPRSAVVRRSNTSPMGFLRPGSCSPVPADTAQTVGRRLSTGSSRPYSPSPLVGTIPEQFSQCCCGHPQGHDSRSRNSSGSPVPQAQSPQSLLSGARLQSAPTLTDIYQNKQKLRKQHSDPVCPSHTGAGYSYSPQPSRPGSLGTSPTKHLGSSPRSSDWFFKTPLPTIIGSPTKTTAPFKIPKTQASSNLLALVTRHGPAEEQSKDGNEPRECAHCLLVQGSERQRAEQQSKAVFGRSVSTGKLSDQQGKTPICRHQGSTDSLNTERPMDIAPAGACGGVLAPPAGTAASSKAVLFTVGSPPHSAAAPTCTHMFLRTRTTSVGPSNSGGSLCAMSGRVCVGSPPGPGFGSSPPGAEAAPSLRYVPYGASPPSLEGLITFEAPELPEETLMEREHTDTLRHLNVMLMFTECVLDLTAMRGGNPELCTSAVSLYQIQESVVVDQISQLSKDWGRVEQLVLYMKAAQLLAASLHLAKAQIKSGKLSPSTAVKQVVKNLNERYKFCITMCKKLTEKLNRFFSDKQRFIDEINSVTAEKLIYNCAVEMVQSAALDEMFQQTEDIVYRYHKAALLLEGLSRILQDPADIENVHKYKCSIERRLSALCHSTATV
Chain of full-length kinase/Nluc fusion proteins (Homo sapiens, UniProt P08631) (P08631 whole entry, the tested form may be a part): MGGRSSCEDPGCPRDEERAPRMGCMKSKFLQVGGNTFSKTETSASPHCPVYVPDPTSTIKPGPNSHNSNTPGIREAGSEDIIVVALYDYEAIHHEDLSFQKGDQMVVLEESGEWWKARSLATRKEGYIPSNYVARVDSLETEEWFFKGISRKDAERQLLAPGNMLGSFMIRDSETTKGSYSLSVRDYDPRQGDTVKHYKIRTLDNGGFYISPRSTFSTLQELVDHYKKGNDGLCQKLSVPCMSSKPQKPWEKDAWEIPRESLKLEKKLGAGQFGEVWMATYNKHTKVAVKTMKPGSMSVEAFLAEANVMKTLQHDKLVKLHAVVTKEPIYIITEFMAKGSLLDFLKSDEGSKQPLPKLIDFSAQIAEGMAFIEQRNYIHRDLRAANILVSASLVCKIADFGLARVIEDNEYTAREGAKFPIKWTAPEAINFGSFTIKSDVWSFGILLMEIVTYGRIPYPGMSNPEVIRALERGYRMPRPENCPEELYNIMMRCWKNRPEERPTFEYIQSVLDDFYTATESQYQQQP
Chain of full-length kinase/Nluc fusion proteins (Homo sapiens, UniProt P51956) (P51956 whole entry, the tested form may be a part): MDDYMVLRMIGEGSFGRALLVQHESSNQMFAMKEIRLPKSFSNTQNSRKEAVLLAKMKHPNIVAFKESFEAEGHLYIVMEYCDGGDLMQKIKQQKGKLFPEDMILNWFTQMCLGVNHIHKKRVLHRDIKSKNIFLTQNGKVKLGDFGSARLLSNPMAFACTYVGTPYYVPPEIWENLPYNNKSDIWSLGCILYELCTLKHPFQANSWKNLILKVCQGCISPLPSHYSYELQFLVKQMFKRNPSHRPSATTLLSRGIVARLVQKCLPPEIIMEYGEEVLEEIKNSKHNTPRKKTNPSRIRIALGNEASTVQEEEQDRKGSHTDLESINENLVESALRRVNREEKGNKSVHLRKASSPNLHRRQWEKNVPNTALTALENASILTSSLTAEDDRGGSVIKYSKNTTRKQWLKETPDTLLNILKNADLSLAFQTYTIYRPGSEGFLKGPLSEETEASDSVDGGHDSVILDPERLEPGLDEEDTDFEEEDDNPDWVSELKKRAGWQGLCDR
Chain of 178 full-length kinases (Homo sapiens, UniProt P42685) (P42685 whole entry): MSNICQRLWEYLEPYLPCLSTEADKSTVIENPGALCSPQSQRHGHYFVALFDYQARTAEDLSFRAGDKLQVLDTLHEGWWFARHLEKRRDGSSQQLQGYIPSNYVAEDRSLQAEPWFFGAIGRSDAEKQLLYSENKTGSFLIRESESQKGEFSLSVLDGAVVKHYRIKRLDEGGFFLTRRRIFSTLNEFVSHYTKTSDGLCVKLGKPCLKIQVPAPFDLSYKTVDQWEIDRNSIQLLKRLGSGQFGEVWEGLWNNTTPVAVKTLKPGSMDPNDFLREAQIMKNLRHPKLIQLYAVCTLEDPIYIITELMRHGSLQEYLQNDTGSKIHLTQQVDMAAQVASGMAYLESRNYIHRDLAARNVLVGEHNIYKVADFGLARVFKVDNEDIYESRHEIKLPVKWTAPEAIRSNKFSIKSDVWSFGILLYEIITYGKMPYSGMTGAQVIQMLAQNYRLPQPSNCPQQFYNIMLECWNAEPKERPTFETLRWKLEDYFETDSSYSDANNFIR
Chain of full-length kinase/Nluc fusion proteins (Homo sapiens, UniProt O75460) (O75460 19-977): as the sequence (O75460 19-977) above

Compound: C[C@@H](Oc1cc(-c2cnn(C3CCNCC3)c2)cnc1N)c1c(Cl)ccc(F)c1Cl [Crizotinib]
IC50 [2]: 580 nM
Occupancy, % Replicate 1 ([5]; replicate 1): No Binding
Occupancy, % Replicate 2 ([5]; replicate 2): No Binding
Occupancy, % Replicate 2 [6]: No Binding
Occupancy, % Replicate 1 [7]: No Binding
Occupancy, % Replicate 2 [7]: No Binding
Occupancy, % Replicate 1 [8]: No Binding
Occupancy, % Replicate 2 [8]: No Binding
Occupancy, % Replicate 2 [9]: No Binding
Occupancy, % Replicate 1 [10]: No Binding
Occupancy, % Replicate 1 [11]: No Binding
Occupancy, % Replicate 2 [12]: No Binding
Occupancy, % Replicate 2 [13]: No Binding
Occupancy, % Replicate 2 [14]: No Binding

EC50 [17]: 600 nM
EC50 [18]: > 1000 nM
EC50 [19]: > 1000 nM
EC50 [20]: 500 nM
EC50 [21]: 200 nM
EC50 [22]: > 1000 nM
EC50 [23]: > 1000 nM
EC50 ([24]; ATP Depleted): 370 ± 70 nM
EC50 ([24]; Live): > 1000 nM
EC50 ([24]; Permeabilized): 52 ± 3 nM
Compound: CNC(=O)c1ccccc1Nc1nc(Nc2ccc(N3CCN(C(=O)CCOCCOCCOCCOCCNC(=O)CCc4ccc5n4[B-](F)(F)[N+]4=C(c6ccc[nH]6)C=CC4=C5)CC3)cc2)ncc1Cl [Energy Transfer Probe 5, 2-((2-((4-(4-(1-amino-3,6,9,12-tetraoxapentadecan-15-oyl)piperazin-1-yl)phenyl)amino)-5-chloropyrimidin-4-yl)amino)-N-methylbenzamide-NanoBRET 590]

EC50 [25]: > 1000 nM
EC50 [26]: 200 nM
Compound: Cc1nc(Nc2ncc(C(=O)Nc3c(C)cccc3Cl)s2)cc(N2CCN(CCOCCNC(=O)CCc3ccc4n3[B-](F)(F)[N+]3=C(c5ccc[nH]5)C=CC3=C4)CC2)n1 [Energy Transfer Probe 6, 2-((6-(4-(2-(2-aminoethoxy)ethyl)piperazin-1-yl)-2-methylpyrimidin-4-yl)amino)-N-(2-chloro-6-methylphenyl)thiazole-5-carboxamide-NanoBRET 590]
